Literature values as cited in paper PMC11887511 (Crystal Growth & Design, 2025).

Conditions: no reference given

pKa1: 2.12 | pKa2: 2.90 | pKa[base]: 9.63
SMILES: O=C(O)CNCC(=O)O [IDA, iminodiacetic acid]
